From publication PMC2915626, “Isolation and Characterization of a Defensin-Like Peptide (Coprisin) from the Dung Beetle, Copris tripartitus” (International Journal of Peptides, 2009)
Ends that are not written are not given here.

What was measured:
E. coli = test: Broth microdilution assay (MIC); type: cell-based, Escherichia coli
Procedure: (§1) In addition to a radial diffusion assay, antibacterial activities of the peptides were also tested by a broth microdilution assay against E. coli and S. aureus. Briefly, bacteria were grown overnight in TSB to the onset of stationary phase at 37°C with shaking at 200 rpm. The cultures were diluted in a fresh TSB to the final concentration of 2 × 10^4 CFU/mL. A stock solution of each peptide was prepared in 0.01% acetic acid at 640 μg/mL. The peptide solution was then serially diluted in 0.01% acetic acid to 2 μg/mL. After 90 μL aliquots of the bacterial suspension were dispensed into each well of a 96-well polypropylene microtiter plate, 10 μL of peptide solution was added. The antibacterial activities of peptides were assessed by measuring visible turbidity in each well of the plate after 18 hours of incubation at 37°C. MIC was expressed as intervals (a to b), where a was the highest concentration tested at which bacteria were still growing and b was the lowest concentration that caused complete growth inhibition.

S. aureus = test: Broth microdilution assay (MIC); type: cell-based, Staphylococcus aureus
Procedure: as §1

[1] = broth microdilution in TSB, 2 × 10^4 CFU/mL, 18 hours at 37°C, visible turbidity, MIC as interval a to b (a highest conc. with growth, b lowest conc. with complete inhibition)

| Substance | MIC (μg/mL) E. coli (E. coli; 18 h) | MIC (μg/mL) S. aureus (S. aureus; 18 h) | MIC (μg/mL) E. coli (E. coli; [1]) | MIC (μg/mL) S. aureus (S. aureus; [1]) | antibacterial activity against Escherichia coli (in words) (E. coli; statement of the abstract) | antibacterial activity against Staphylococcus aureus (in words) (S. aureus; statement of the abstract) |
| --- | --- | --- | --- | --- | --- | --- |
| LRCIALRKK-NH2 [CopA4] | 16 to 32 µg/mL | >64 µg/mL | – | – | – | – |
| LHCIALRKK-NH2 [CopN5(22–30)] | – | – | 8 to 16 µg/mL | >64 µg/mL | – | – |
| LLCIALRKK-NH2 [CopA3] | 4 to 8 µg/mL | 4 to 8 µg/mL | – | – | potent antibacterial activities | potent antibacterial activities |
| LHRIALRKK-NH2 [CopA2] | >64 µg/mL | >64 µg/mL | – | – | – | – |
| LHLIALRKK-NH2 [CopA1] | >64 µg/mL | >64 µg/mL | – | – | – | – |
